Among the data in patent US10485236B2, “Triazole derivatives, intermediates thereof and their use as fungicides” (Bayer CropScience Aktiengesellschaft, priority 2015, dated 2019) are pest or weed control values, retold here.

One experiment deals with Puccinia recondita. Briefly: Example B: in vivo preventive test on Puccinia recondita (brown rust on wheat). As to conditions: 264 h, 500 ppm of active ingredient, wheat plants, preventive spray, evaluated 11 days after inoculation, read-out: efficacy. How it is done: (§1) Example B: In Vivo Preventive Test on Puccinia recondita (Brown Rust on Wheat) [table] The active ingredients are made soluble and homogenized in a mixture of Dimethyl sulfoxide/Acetone//Tween® 80 and then diluted in water to the desired concentration. The young plants of wheat are treated by spraying the active ingredient prepared as described above. Control plants are treated only with an aqueous solution of Acetone/Dimethyl sulfoxide/Tween® 80. After 24 hours, the plants are contaminated by spraying the leaves with an aqueous suspension of Puccinia recondita spores. The contaminated wheat plants are incubated for 24 hours at 20° C. and at 100% relative humidity and then for 10 days at 20° C. and at 70-80% relative humidity. The test is evaluated 11 days after the inoculation. 0% means an efficacy which corresponds to that of the control plants while an efficacy of 100% means that no disease is observed.

Another experiment concerns Septoria tritici. Briefly: Example C: in vivo preventive test on Septoria tritici (leaf spot on wheat). As to conditions: Zymoseptoria tritici, 576 h; 500 ppm of active ingredient; wheat plants, preventive spray; evaluated 24 days after inoculation; read-out: efficacy. How it is done: Example C: In Vivo Preventive Test on Septoria tritici (Leaf Spot on Wheat) [table] The active ingredients are made soluble and homogenized in a mixture of Dimethyl sulfoxide/Acetone//Tween® 80 and then diluted in water to the desired concentration. The young plants of wheat are treated by spraying the active ingredient prepared as described above. Control plants are treated only with an aqueous solution of Acetone/Dimethyl sulfoxide/Tween® 80. After 24 hours, the plants are contaminated by spraying the leaves with an aqueous suspension of Septoria tritici spores. The contaminated wheat plants are incubated for 72 hours at 18° C. and at 100% relative humidity and then for 21 days at 20° C. and at 90% relative humidity. The test is evaluated 24 days after the inoculation. 0% means an efficacy which corresponds to that of the control plants while an efficacy of 100% means that no disease is observed.

The next experiment has as its system Sphaerotheca fuliginea. The experiment in a line: Example D: in vivo preventive test on Sphaerotheca fuliginea (powdery mildew on cucurbits). As to conditions: Podosphaera fuliginea, 360 h; 500 ppm of active ingredient; gherkin plants, preventive spray; evaluated 15 days after inoculation; read-out: efficacy. How it is done:
Example D: In Vivo Preventive Test on Sphaerotheca fuliginea (Powdery Mildew on Cucurbits) [table] The active ingredients are made soluble and homogenized in a mixture of Dimethyl sulfoxide/Acetone//Tween® 80 and then diluted in water to the desired concentration. The young plants of gherkin are treated by spraying the active ingredient prepared as described above. Control plants are treated only with an aqueous solution of Acetone/Dimethyl sulfoxide/Tween® 80. After 24 hours, the plants are contaminated by spraying the leaves with an aqueous suspension of Sphaerotheca fuliginea spores. The contaminated gherkin plants are incubated for 72 hours at 18° C. and at 100% relative humidity and then for 12 days at 20° C. and at 70-80% relative humidity. The test is evaluated 15 days after the inoculation. 0% means an efficacy which corresponds to that of the control plants while an efficacy of 100% means that no disease is observed.

The subject of a further experiment is Uromyces appendiculatus. The experiment in a line: Example E: in vivo preventive test on Uromyces appendiculatus (bean rust). As to conditions: 264 h, 500 ppm of active ingredient, bean plants, preventive spray, evaluated 11 days after inoculation, read-out: efficacy. How it is done:
as §1, with “E:” for “B:”, “Uromyces appendiculatus (Bean Rust)” for “Puccinia recondita (Brown Rust on Wheat)”, “bean” for “wheat”, “Uromyces appendiculatus” for “Puccinia recondita”

In the next experiment the test system is Phakopsora pachyrhizi. Briefly: Example G: in vivo preventive test on Phakopsora test (soybeans). As to conditions: 168 h, 100 ppm of active ingredient, preventive spray, evaluated 7 days after inoculation, read-out: efficacy. How it is done:
Example G: In Vivo Preventive Test on Phakopsora Test (Soybeans) [table] To produce a suitable preparation of active compound, 1 part by weight of active compound is mixed with the stated amounts of solvent and emulsifier, and the concentrate is diluted with water to the desired concentration. To test for preventive activity, young plants are sprayed with the preparation of active compound at the stated rate of application. After the spray coating has dried on, the plants are inoculated with an aqueous spore suspension of the causal agent of soybean rust (Phakopsora pachyrhizi) and stay for 24 h without light in an incubation cabinet at approximately 24° C. and a relative atmospheric humidity of 95%. The plants remain in the incubation cabinet at approximately 24° C. and a relative atmospheric humidity of approximately 80% and a day/night interval of 12 h. The test is evaluated 7 days after the inoculation. 0% means an efficacy which corresponds to that of the untreated control, while an efficacy of 100% means that no disease is observed.

The next experiment concerns Venturia inaequalis. Briefly: Example H: in vivo preventive test on Venturia test (apples). As to conditions: 240 h, 100 ppm of active ingredient, preventive spray, evaluated 10 days after inoculation, read-out: efficacy. How it is done: Example H: In Vivo Preventive Test on Venturia Test (Apples) [table] To produce a suitable preparation of active compound, 1 part by weight of active compound is mixed with the stated amounts of solvent and emulsifier, and the concentrate is diluted with water to the desired concentration. To test for preventive activity, young plants are sprayed with the preparation of active compound at the stated rate of application. After the spray coating has dried on, the plants are inoculated with an aqueous conidia suspension of the causal agent of apple scab (Venturia inaequalis) and then remain for 1 day in an incubation cabinet at approximately 20° C. and a relative atmospheric humidity of 100%. The plants are then placed in a greenhouse at approximately 21° C. and a relative atmospheric humidity of approximately 90%. The test is evaluated 10 days after the inoculation. 0% means an efficacy which corresponds to that of the untreated control, while an efficacy of 100% means that no disease is observed.

Molecules are shown by their SMILES.

On to `CC(O)(Cn1cncn1)c1ccc(Oc2ccc(Cl)cc2)nc1C(F)(F)F` (stereo not drawn) [I.01, 2-[6-(4-chlorophenoxy)-2-(trifluoromethyl)-3-pyridyl]-1-(1,2,4-triazol-1-yl)propan-2-ol], for which the pest or weed control at 500 ppm in the experiment on Puccinia recondita, in the experiment with Septoria tritici, in the experiment with Sphaerotheca fuliginea and in the experiment with Uromyces appendiculatus was 90 to 100% throughout. Also, the pest or weed control at 100 ppm in the experiment with Phakopsora pachyrhizi and in the experiment on Venturia inaequalis was 90 to 100% each time.
On to `CC(O)(Cn1cncn1)c1cnc(Oc2ccc(Cl)cc2)cc1C(F)(F)F` (stereo not drawn) [I.02, 2-[6-(4-chlorophenoxy)-4-(trifluoromethyl)-3-pyridyl]-1-(1,2,4-triazol-1-yl)propan-2-ol], for which the pest or weed control at 500 ppm was in the range of 90 to 100% in the experiment on Puccinia recondita, 80 to 89% in the experiment on Septoria tritici, 90 to 100% with Sphaerotheca fuliginea and 90 to 100% in the experiment on Uromyces appendiculatus. In addition, the pest or weed control at 100 ppm with Phakopsora pachyrhizi and in the experiment on Venturia inaequalis was 90 to 100% each time.
Turning to `OC(Cn1cncn1)c1ccc(Oc2ccc(Cl)cc2)nc1C(F)(F)F` (stereo not drawn) [I.03, 1-[6-(4-chlorophenoxy)-2-(trifluoromethyl)-3-pyridyl]-2-(1,2,4-triazol-1-yl)ethanol], the pest or weed control at 500 ppm in the experiment with Puccinia recondita, in the experiment with Septoria tritici, in the experiment with Sphaerotheca fuliginea and with Uromyces appendiculatus was 90 to 100% each time. In addition, the pest or weed control at 100 ppm in the experiment with Phakopsora pachyrhizi and with Venturia inaequalis was 90 to 100% each time.
With `CC(O)(Cn1cncn1)c1cnc(Oc2ccccc2)cc1Cl` (stereo not drawn) [I.05], the pest or weed control at 500 ppm in the experiment on Puccinia recondita, with Septoria tritici, with Sphaerotheca fuliginea and in the experiment on Uromyces appendiculatus was 90 to 100% each time. Further, the pest or weed control at 100 ppm in the experiment with Phakopsora pachyrhizi and with Venturia inaequalis was 90 to 100% in each case.
Regarding `OC(Cn1cncn1)c1ccc(Oc2ccc(Cl)cc2)nc1Cl` (stereo not drawn) [I.14], the pest or weed control at 500 ppm in the experiment with Puccinia recondita, in the experiment with Septoria tritici, with Sphaerotheca fuliginea and with Uromyces appendiculatus was 90 to 100% each time. For the same compound, the pest or weed control at 100 ppm in the experiment on Phakopsora pachyrhizi and in the experiment with Venturia inaequalis was 90 to 100% in each case.
For the compound `Cc1ccc(Oc2ccc(C(O)Cn3cncn3)c(Cl)n2)cc1Cl` (stereo not drawn) [I.16], the pest or weed control at 500 ppm in the experiment with Puccinia recondita was 80 to 89%; in the experiment on Septoria tritici, 80 to 89%; in the experiment on Sphaerotheca fuliginea, 90 to 100%; in the experiment on Uromyces appendiculatus, 90 to 100%. The pest or weed control at 100 ppm in the experiment with Phakopsora pachyrhizi and in the experiment with Venturia inaequalis was 90 to 100% throughout.
With `CC(O)(Cn1cncn1)c1ccc(Oc2ccc(S(F)(F)(F)(F)F)cc2)nc1Cl` (stereo not drawn) [I.35], the pest or weed control at 500 ppm in the experiment with Puccinia recondita, in the experiment with Septoria tritici, in the experiment with Sphaerotheca fuliginea and in the experiment on Uromyces appendiculatus was 90 to 100% throughout. The pest or weed control at 100 ppm lay in the range of 70 to 79% with Phakopsora pachyrhizi and 90 to 100% with Venturia inaequalis.
`OC(Cn1cncn1)c1cnc(Oc2ccc(S(F)(F)(F)(F)F)cc2)cc1C(F)(F)F` (stereo not drawn) [I.36]: the pest or weed control at 500 ppm was 90 to 100% in the experiment on Puccinia recondita, 80 to 89% in the experiment on Septoria tritici, 90 to 100% in the experiment with Sphaerotheca fuliginea and 90 to 100% with Uromyces appendiculatus. Also, the pest or weed control at 100 ppm with Phakopsora pachyrhizi and in the experiment with Venturia inaequalis was 90 to 100% each time.
Regarding `CC(O)(Cn1cncn1)c1ccc(Oc2ccc(C(F)F)cc2)nc1Cl` (stereo not drawn) [I.39], the pest or weed control at 500 ppm in the experiment on Puccinia recondita, with Septoria tritici, with Sphaerotheca fuliginea and in the experiment on Uromyces appendiculatus was 90 to 100% in each case. Also, the pest or weed control at 100 ppm with Phakopsora pachyrhizi was 90 to 100%; with Venturia inaequalis it was 80 to 89%.
Consider `C[C@@](O)(Cn1cncn1)c1cnc(Oc2ccc(Cl)cc2)cc1C(F)(F)F` [I.45], for which the pest or weed control at 500 ppm in the experiment on Puccinia recondita, in the experiment on Septoria tritici, in the experiment with Sphaerotheca fuliginea and in the experiment on Uromyces appendiculatus was 90 to 100% each time. Also, the pest or weed control at 100 ppm in the experiment on Phakopsora pachyrhizi and in the experiment on Venturia inaequalis was 90 to 100% each time.
In the case of `OC(Cn1cncn1)c1cnc(Oc2ccc(C(F)(F)F)cc2)cc1C(F)(F)F` (stereo not drawn) [I.47], the pest or weed control at 500 ppm in the experiment on Puccinia recondita, in the experiment on Septoria tritici, with Sphaerotheca fuliginea and in the experiment on Uromyces appendiculatus was 90 to 100% throughout. In addition, the pest or weed control at 100 ppm in the experiment with Phakopsora pachyrhizi and in the experiment with Venturia inaequalis was 90 to 100% each time.
With `OC(Cn1cncn1)(c1ccc(Oc2ccc(Cl)cc2)nc1C(F)(F)F)C1CC1` (stereo not drawn) [I.91, 1-[6-(4-chlorophenoxy)-2-(trifluoromethyl)-3-pyridyl]-1-cyclopropyl-2-(1,2,4-triazol-1-yl)ethanol], the pest or weed control at 500 ppm with Puccinia recondita, with Septoria tritici, in the experiment on Sphaerotheca fuliginea and in the experiment on Uromyces appendiculatus was 90 to 100% in each case. The pest or weed control at 100 ppm in the experiment on Phakopsora pachyrhizi and with Venturia inaequalis was 90 to 100% in each case.
In the case of `O=C(Cn1cncn1)c1ccc(Oc2ccc(Cl)cc2)nc1C(F)(F)F` [VII.01, 1-[6-(4-chlorophenoxy)-2-(trifluoromethyl)-3-pyridyl]-2-(1,2,4-triazol-1-yl)ethanone], the pest or weed control at 500 ppm in the experiment with Puccinia recondita was 90 to 100%; in the experiment on Septoria tritici it was 80 to 89%; with Sphaerotheca fuliginea, 90 to 100%; with Uromyces appendiculatus, 90 to 100%. Moreover, the results for the pest or weed control at 100 ppm in the experiment on Phakopsora pachyrhizi and with Venturia inaequalis were 80 to 89% and 90 to 100%, respectively.
